Reference: patent US8912137B2, “Method for increasing natriuresis or diuresis by isoforms of brain natriuretic peptide” (Mayo Foundation for Medical Education and Research, priority 2003, dated 2014)

Tests used:
[1] = test system: Human umbilical vascular endothelial cells (HUVEC); experiment: Stimulation of intracellular cGMP production in HUVEC (BIOTRACK cGMP enzyme immunoassay); format: cell-based; settings: 30 minutes incubation, 0.5 mM IBXM
Method: Human umbilical vascular endothelial cells (HUVEC) were cultured in 96-well plates using endothelial cell medium (EGM™-2) supplemented with the components provided by the EGM™-2 BulletKit (CC-3162) (Clonetics, East Rutherford, N.J.). After cells reached about 80% confluency, the plates were washed with phosphate-buffered saline ([…], SEQ ID NO:35) dissolved in EBM-2 that contained supplements and 0.5 mM IBXM. After incubation, the culture medium was aspirated, and the cells were assayed for intracellular cGMP production using the BIOTRACK cGMP enzyme immunoassay kit (Amersham Pharmacia Biotech). The amount of cGMP was calculated according the standard curve that was generated from parallel reactions within the same experiment.

[2] = test system: carotid arteries from New Zealand White Rabbits; experiment: Vasoactivity in organ chamber, phenylephrine pre-contracted carotid artery rings; settings: rabbit carotid rings
Method: Vasoactivity was assessed in an organ chamber using carotid arteries from New Zealand White Rabbits. Following euthanization, carotids were immediately immersed in cold Krebs solution. Arterial rings ˜4 mm in length (n=6) were dissected, connected to isometric force displacement transducers, and suspended in organ chambers filled with 25 mL of Krebs (94% O2, 6% CO2). Rings were equilibrated for 1 hour at 37° C. and then incrementally stretched to 3 g. Viability and maximum contraction was determined with 60 mM KCl. After 3 washes with Krebs solution and further equilibration, arteries were pre-contracted with phenylephrine in a titrated fashion to achieve ˜80% stable maximal contraction. To study vasoactivity, BNP3 (final cone 10^−10 to 10^−7 M) or vehicle was added to the organ bath in a cumulative manner. Following three further washes and equilibration, the arteries were re-contracted and viability was confirmed by assessment of endothelium independent responses with incremental doses of sodium nitroprusside (10^−9 to 10^−5 M), an exogenous NO donor.

normal dogs = experiment: Intrarenal arterial infusion in normal dog; format: in vivo; settings: intrarenal arterial infusion 0.03 ng/kg/min
Method: To determine the physiological effects of BNP-3, the synthesized peptide was delivered via a direct intrarenal arterial infusion (0.03 ng/kg/min) in normal dogs. Physiologic assessment was performed following a 15 minute run-in period. […] Both of these increases normalized during a washout period.

[3] = cited from earlier work

Substance | cGMP ([1]; BNP3 10^−8 M) [fmol/well] | cGMP ([1]; BNP3 10^−9 M) [fmol/well] | cGMP ([1]; BNP3 10^−10 M) [fmol/well] | concentration at which vasorelaxation began ([2]; cumulative addition 10^−10 to 10^−7 M) | complete relaxation ([2]; dose 10^−7M) [%] | complete relaxation ([2]; dose 10^−8M) [%] | increased urinary flow (normal dogs) | plasma cGMP (normal dogs) | urinary excretion of sodium (normal dogs) | effect on heart rate ([3]; in vivo) | pro-arrhythmic effect ([3]; in vivo) | cardiac index ([3]; intravenous therapy) | pulmonary capillary wedge pressure ([3]; intravenous therapy) | systemic vascular resistance ([3]; intravenous therapy)
SPKMVQGSGCFGRKMDRISSSSGLGCKVVQKENQTFPPGFL (listed as Homo sapiens) [BNP3] | 26 | 18 | 1 | 10^−9 M | ~95 | ~60 | 6-8 fold | elevation of plasma cGMP | increased urinary excretion of sodium |  |  |  |  | 
recombinant BNP: recombinant brain natriuretic peptide, 32 amino acid peptide with a ring structure (SEQ ID NO:16) |  |  |  |  |  |  |  |  |  | no effect | not pro-arrhythmic | increases | significantly decreases | significantly decreases
